# Test results from patent publication US5457092A, “Methods of promoting bone growth in mammals comprising administration of modified parathyroid hormone” (Gesellschaft fur Biotechnologische Forschung mbH (GBF), priority 1987, dated 1995).
# Tests used:
# [1] = test system: rat epiphysial cartilage cell cultures; assay: DNA synthesis in rat epiphysial cartilage cell cultures; assay type: cell-based; details: for [^3 H]Thymidine incorporation into DNA: 100 nM, control 350 ± 25
# [2] = test system: rat organs (epiphysis, diaphysis, kidney); assay: [3H]thymidine incorporation into DNA in rat organs after i.p. injection; assay type: in vivo; details: 22-24 h after injection
# Protocol: FIG. 12 is a graph showing the time course of stimulation by hPTH (1-34) of DNA synthesis in rat organs. Female rats (20-25 days old) were injected i.p. with hPTH-(1-34) (2 μg/rat). At 2 h before the times indicated, the rats were killed and organs were removed and incubated in 2 ml of Dulbecco's modified Eagle's medium containing 5 μl of [^3 H]thymidine. (Amersham: 5 Ci/mmol) for 2 h, then washed with medium and homogenized in deionized distilled water. The total uptake of [^3 H]thymidine and acid-insoluble radioactivity was measured, as well as DNA content, as described below. , Diaphysis; O, epiphysis; Δ; kidney. P<0.01 versus controls.
# The pieces were then incubated for 2 h more (the time indicated in FIG. 12) with [^3 H]thymidine (5 μci/ml; 5 Ci/mmol) at 37° C. in Dulbecco's modified Eagle's medium under an atmosphere Of […] /95% air. Total [^3 H]thymidine uptake and incorporation into trichloroacetic acid-insoluble material was measured as described in Biochem. J., 214 (1983) 293-298 (16; Somjen et al.). At no time including the 22 24 h pulse, was there any significant change in the total uptake of [^3 H]thymidine which reflects changes in the thymidine pool which, in turn, could account for changes in incorporation. DNA was determined by the Burton method; cf. Biochem. J., 62 (1956) 315-323 (17; Burton).
# To corroborate that under the circumstances of these experiments the increase in CK specific activity in bone is indeed a valid marker of cell proliferation, changes in DNA synthesis were measured by [^3 H]thymidine incorporation; cf. Biochem. J., 272 (1990) 781-785 (18; Somjen et al.). The earliest time at which PTH increased [^3 H]thymidine incorporation was determined by in-jecting rats with an optimal dose of 2 μp of PTH(1-34)/rat, equivalent to 13 nM (FIG. 14) and measuring 2 h pulses of [^3 H)thymidine incorporation into DNA (FIG. 12).
# [3] = test system: ROS 17/2.8 osteoblast-like cells; assay: Cyclic AMP production in ROS 17/2.8 osteoblast-like cells; assay type: cell-based, rat; details: for Cyclic AMP, effect of fragment (experimental value/control value): control 29 ± 5.2 pmol/mg of protein
# Protocol: When cultures of the widely used model for osteoblasts, the osteoblast-likeclone of rat osteosarcoma, ROS 17/2.8 (Endocrinology (Baltimore), 107 (1980) 1494-1503=12; Majeska et al.), were incubated with full-length PTH and PTH fragments (Table 4), cyclic AMP production was stimulated only by bPTH(1-84) and hPTH(1-34), whereas hPTH(25-39), hPTH(27-48), hPTH(28-48) and hPTH(34-47) were ineffective.
# [4] = test system: ROS 17/2.8 osteoblast-like cells; assay: DNA synthesis in ROS 17/2.8 osteoblast-like cells; assay type: cell-based, rat; details: control 392 ± 58 c.p.m./μg of DNA
# [5] = test system: rat organs (epiphysis, diaphysis, kidney); assay: [3H]thymidine incorporation into DNA in rat organs after i.p. injection; assay type: in vivo; details: rat; for [^3 H]thymidine incorporation into DNA, Kidney: control 9.0 ± 2.1; for [^3 H]thymidine incorporation into DNA, Diaphysis: control 24.1 ± 3.8; for [^3 H]thymidine incorporation into DNA, Epiphysis: control 25.8 ± 5.2
# [6] = test system: rat epiphysial cartilage cell cultures; assay: CK specific activity in rat epiphysial cartilage cell cultures; assay type: cell-based; details: for CK specific activity: 100 nM, control 225 ± 32
# Protocol: To compare the stimulations seen in osteoblast-like cells (FIGS. 10 and 11) with PTH effects in a cartilage system, cultures of rat epiphysial cartilage cells were incubated with full-length PTH and selected PTH fragments (Table 3). CK activity was stimulated by bPTH(1-84) and hPTH(28-48) but not by hPTH(25-39) or hPTH(34-47). […] The comparison between the complete molecule and the mid-regional fragment hPTH (28-48) is similar to but not identical with the results obtained for calvaria cell cultures (FIGS. 10 and 11) and in the chick sternum chondrocyte system; cf. Biochem. J., 252 (1988) 263-268 (11; Farndale et al.),
# [7] = test system: ROS 17/2.8 osteoblast-like cells; assay: CK specific activity in ROS 17/2.8 osteoblast-like cells; assay type: cell-based, rat; details: control 698 ± 70 nmol/min per mg of protein
# [8] = 22-24 h after injection of 1.25 μg
# [9] = 22-24 h after injection of 0.876 μg
# [10] = 22-24 h after injection of 0.875 μg
substance,measurement,setting,value
"hPTH(28-48): mid-regional PTH fragment 28-48, human source (LQDVHNFVALGAPLAPRDAGS; Parathyroid hormone; UniProt P01270 59-79, looked up, fragment)",[^3 H]Thymidine incorporation into DNA,[1],731 ± 44 c.p.m./plate
same,potency in stimulating [^3 H]thymidine incorporation in diaphysis and epiphysis (in words),[2],as potent as bPTH(1-84)
same,stimulation of cyclic AMP production (in words),[3],ineffective
same,"Cyclic AMP, effect of fragment (experimental value/control value)",[3]; 400 nM,1.18 ± 0.28
same,"[^3 H]Thymidine incorporation, effect of fragment (experimental value/control value)",[4]; 400 nM,1.56 ± 0.12
same,"[^3 H]thymidine incorporation into DNA, Kidney",[5]; [8],11.2 ± 2.7 c.p.m./pg of DNA
same,"[^3 H]thymidine incorporation into DNA, Diaphysis",[5]; [8],39.1 ± 8.1 c.p.m./pg of DNA
same,"[^3 H]thymidine incorporation into DNA, Epiphysis",[5]; [8],46.7 ± 7.4 c.p.m./pg of DNA
same,stimulation of CK activity (in words),[6],stimulated
same,CK specific activity,[6],346 ± 36 nmol/min per mg of protein
same,"CK specific activity, effect of fragment (experimental value/control value)",[7]; 400 nM,1.56 ± 0.08
"hPTH(25-39): PTH fragment 25-39, human source (RKKLQDVHNFVALGA; Parathyroid hormone; UniProt P01270 56-70, looked up, fragment)",[^3 H]Thymidine incorporation into DNA,[1],544 ± 44 c.p.m./plate
same,potency in stimulating [^3 H]thymidine incorporation in diaphysis and epiphysis (in words),[2],as potent as hPTH(28-48)
same,stimulation of cyclic AMP production (in words),[3],ineffective
same,"Cyclic AMP, effect of fragment (experimental value/control value)",[3]; 200 nM,1.05 ± 0.15
same,"[^3 H]Thymidine incorporation, effect of fragment (experimental value/control value)",[4]; 200 nM,1.36 ± 0.08
same,"[^3 H]thymidine incorporation into DNA, Kidney",[5]; [9],11.2 ± 1.9 c.p.m./pg of DNA
same,"[^3 H]thymidine incorporation into DNA, Diaphysis",[5]; [9],44.8 ± 4.5 c.p.m./pg of DNA
same,"[^3 H]thymidine incorporation into DNA, Epiphysis",[5]; [9],48.4 ± 6.6 c.p.m./pg of DNA
same,CK specific activity,[6],268 ± 36 nmol/min per mg of protein
same,"CK specific activity, effect of fragment (experimental value/control value)",[7]; 200 nM,1.71 ± 0.08
"hPTH(34-47): PTH fragment 34-47, human source; comparative example (FVALGAPLAPRDAG; Parathyroid hormone; UniProt P01270 65-78, looked up, fragment) [reference compound]",stimulation of DNA synthesis (in words),[1],stimulated by all molecules tested except
same,[^3 H]Thymidine incorporation into DNA,[1],356 ± 75 c.p.m./plate
same,potency in stimulating [^3 H]thymidine incorporation in diaphysis and epiphysis (in words),[2],inactive
same,stimulation of cyclic AMP production (in words),[3],ineffective
same,"Cyclic AMP, effect of fragment (experimental value/control value)",[3]; 500 nM,0.88 ± 0.31
same,"[^3 H]Thymidine incorporation, effect of fragment (experimental value/control value)",[4]; 500 nM,1.05 ± 0.11
same,"[^3 H]thymidine incorporation into DNA, Kidney",[5]; [10],9.0 ± 1.9 c.p.m./pg of DNA
same,"[^3 H]thymidine incorporation into DNA, Diaphysis",[5]; [10],28.6 ± 4.2 c.p.m./pg of DNA
same,"[^3 H]thymidine incorporation into DNA, Epiphysis",[5]; [10],28.0 ± 7.2 c.p.m./pg of DNA
same,CK specific activity,[6],236 ± 32 nmol/min per mg of protein
same,"CK specific activity, effect of fragment (experimental value/control value)",[7]; 500 nM,1.07 ± 0.10
